Reference: ChEMBL document CHEMBL5620413, “Novel pterostilbene derivatives ameliorate heart failure by reducing oxidative stress and inflammation through regulating Nrf2/NF-κB signaling pathway” (Eur J Med Chem, 2023)
The source made the active and inactive calls.

What was measured:
Mus musculus [1] = assay: Inhibition of DOX-induced cardiac ROS generation in cardiac dysfunction C57BL/6J mouse model at 7 mg/kg, ip administered daily for 4 weeks by DHE staining based analysis; format: functional, organism-based
RAW264.7 [2] = assay: Antiinflammatory activity in mouse RAW264.7 cells assessed as decrease in LPS-induced COX2 expression preincubated for 1 hr followed by LPS treatment for 24 hrs by Western blot analysis; format: functional, cell-based; conditions: dose <= 10.0 µM, time 25.0 hrs
RAW264.7 [3] = assay: Antiinflammatory activity in mouse RAW264.7 cells assessed as decrease in LPS-induced NO production at 10 uM preincubated for 1 hr followed by LPS treatment for 24 hrs by Griess reagent based assay; format: functional, cell-based; conditions: time 25.0 hrs
H9c2 [4] = assay: Inhibition of ROS generation in rat H9c2 cells assessed as increase in LPS-reduced Nrf2 expression upto 10 uM preincubated for 1 hr followed by LPS treatment for 24 hrs by Western blot analysis; format: functional, cell-based; conditions: time 25.0 hrs
RAW264.7 [5] = assay: Antiinflammatory activity against mouse RAW264.7 cells assessed as decrease in LPS-induced NF-kappaB phosphorylation upto 10 uM preincubated for 1 hr followed by LPS treatment for 24 hrs by Western blot analysis; format: functional, cell-based; conditions: time 25.0 hrs
Mus musculus [6] = assay: Protection against cardiac dysfunction C57BL/6J mouse model assessed as decrease in DOX-induced serum LDH level at 7 mg/kg, ip administered daily for 4 weeks; format: functional, organism-based
Mus musculus [7] = assay: Protection against cardiac dysfunction C57BL/6J mouse model assessed as increase in DOX-reduced cardiac GPX1 expression at 7 mg/kg, ip administered daily for 4 weeks by Western blot analysis; format: functional, organism-based
RAW264.7 [8] = assay: Antiinflammatory activity against mouse RAW264.7 cells assessed as decrease in LPS-induced IL-6 expression upto 10 uM preincubated for 1 hr followed by LPS treatment for 24 hrs by Western blot analysis; format: functional, cell-based; conditions: time 25.0 hrs
Mus musculus [9] = assay: Protection against cardiac dysfunction C57BL/6J mouse model assessed as increase in DOX-reduced cardiac Nrf2 expression at 7 mg/kg, ip administered daily for 4 weeks by Western blot analysis; format: functional, organism-based
Mus musculus [10] = assay: Antiinflammatory activity in cardiac dysfunction C57BL/6J mouse model assessed as decrease in DOX-induced IL-6 expression at 7 mg/kg, ip administered daily for 4 weeks by Western blot analysis; format: functional, organism-based
Mus musculus [11] = assay: Protection against cardiac dysfunction C57BL/6J mouse model assessed as decrease in DOX-induced alpha-SMA expression at 7 mg/kg, ip administered daily for 4 weeks by Western blot analysis; format: functional, organism-based
Mus musculus [12] = assay: Protection against cardiac dysfunction C57BL/6J mouse model assessed as increase in DOX-reduced cardiac NQO1 expression at 7 mg/kg, ip administered daily for 4 weeks by Western blot analysis; format: functional, organism-based
H9c2 [13] = assay: Antiinflammatory activity against rat H9c2 cells assessed as decrease in DOX-induced TNF-alpha expression upto 10 uM preincubated for 1 hr followed by DOX treatment for 12 hrs by Western blot analysis; format: functional, cell-based; conditions: time 13.0 hrs
RAW264.7 [14] = assay: Inhibition of ROS generation in mouse RAW264.7 cells assessed as increase in DOX-reduced GPX1 expression upto 10 uM preincubated for 1 hr followed by DOX treatment for 12 hrs by Western blot analysis; format: functional, cell-based; conditions: time 13.0 hrs
Mus musculus [15] = assay: Protection against cardiac dysfunction C57BL/6J mouse model assessed as decrease in DOX-induced myocardial cell injury at 7 mg/kg, ip administered daily for 4 weeks by H and E staining based analysis; format: functional, organism-based
Mus musculus [16] = assay: Protection against cardiac dysfunction C57BL/6J mouse model assessed as decrease in DOX-induced TGF-beta1 expression at 7 mg/kg, ip administered daily for 4 weeks by Western blot analysis; format: functional, organism-based
RAW264.7 [17] = assay: Inhibition of ROS generation in mouse RAW264.7 cells assessed as increase in DOX-reduced SOD expression upto 10 uM preincubated for 1 hr followed by DOX treatment for 12 hrs by Western blot analysis; format: functional, cell-based; conditions: time 13.0 hrs
RAW264.7 [18] = assay: Inhibition of ROS generation in mouse RAW264.7 cells assessed as increase in DOX-reduced Nrf2 expression upto 10 uM preincubated for 1 hr followed by DOX treatment for 12 hrs by Western blot analysis; format: functional, cell-based; conditions: time 13.0 hrs
Mus musculus [19] = assay: Protection against cardiac dysfunction C57BL/6J mouse model assessed as increase in DOX-reduced cardiac SOD1 expression at 7 mg/kg, ip administered daily for 4 weeks by Western blot analysis; format: functional, organism-based
RAW264.7 [20] = assay: Antiinflammatory activity in mouse RAW264.7 cells assessed as decrease in LPS-induced NO production preincubated for 1 hr followed by LPS treatment for 24 hrs by Griess reagent based assay; format: functional, cell-based; conditions: dose <= 10.0 µM, time 25.0 hrs
Mus musculus [21] = assay: Protection against cardiac dysfunction C57BL/6J mouse model assessed as increase in DOX-reduced LVFS at 7 mg/kg, ip administered daily for 4 weeks by echocardiography; format: functional, organism-based
Mus musculus [22] = assay: Protection against cardiac dysfunction C57BL/6J mouse model assessed as increase in DOX-reduced LVEF at 7 mg/kg, ip administered daily for 4 weeks by echocardiography; format: functional, organism-based

CCCCOc1ccc(/C=C/c2cc(OC)cc(OC)c2C2CC(C)=NN2C(C)=O)cc1 (configuration not stated)
active: inhibition (Mus musculus [1]) | Activity (RAW264.7 [2]) Dose-Dependent Effect | Activity (RAW264.7 [3]) | inhibition (H9c2 [4]) | Activity (RAW264.7 [5]) | Activity (Mus musculus [6]) | Activity (Mus musculus [7]) | Activity (RAW264.7 [8]) | Activity (Mus musculus [9]) | Activity (Mus musculus [10]) | Activity (Mus musculus [11]) | Activity (Mus musculus [12]) | Activity (H9c2 [13]) | inhibition (RAW264.7 [14]) | Activity (Mus musculus [15]) | Activity (Mus musculus [16]) | inhibition (RAW264.7 [17]) | inhibition (RAW264.7 [18]) | Activity (Mus musculus [19]) | Activity (RAW264.7 [20]) Dose-Dependent Effect | Activity (Mus musculus [21]) | Activity (Mus musculus [22])
